Measured values as given in patent publication US12173306B2, “Codon-optimized reduced-size ATP7A CDNA and uses for treatment of copper transport disorders” (The United States of America, as represented by the …, priority 2015, dated 2024).

Tested on: C57BL/6-Atp7a^mo-br mice (mo-br mice)
Experiment: Survival in a mouse model of Menkes disease (mo-br mice)
Type: in vivo
Conditions: single treatments, FIG. 5
Text: FIG. 5 is a graph showing survival of mo-br mice treated with rAAV9-co-rsATP7A (AAV9) and copper histidinate, untreated (UT), treated with AAV9co alone, or treated with copper histidinate alone.
FIG. 6 is a graph showing survival to weaning (dark gray bars) or prolonged survival (light gray bars) in untreated (UT) mice, mice treated with AAV5-rsATP7A and copper histidinate (AAV5+Cu), AAVrh10-rsATP7A and copper histidinate (AAVrh10+copper), AAV9-rsATP7A and copper (AAV9+Cu), and AAV9 co-rsATP7A and copper (AAV9co+Cu). rsATP7A is reduced-size ATP7A cDNA (native sequence (non-codon-optimized)).
The AAV9 co-rsATP7A described in Example 2 was administered to C57BL/6-Atp7a^mo-br mice (mo-br mice) by intracerebroventricular injection. The mice were injected bilaterally on day two of life with 1.6×10^9 vg in 5 μl of lactated Ringer's solution. Some of the mice were also treated with copper histidinate (15 μg) by subcutaneous injection during the first week of life (5 μg, d4-6). About 70% of the mice treated with combination AAV9 co-rsATP7A and copper histidinate survived at least 100 days (FIG. 5).
Different AAV serotypes were also tested for efficacy in mo-br mice.

## copper histidinate
  survival time (did not survive past): ≤ 28 days
